# Reference: patent US8648066B2 (Exelixis, Inc., priority 2009, dated 2014)
# Biological target: mTOR/GbL/Raptor (mTORC1) (Homo sapiens, UniProt P42345)
# Assay: mTOR/GbL/Raptor (mTORC1) ELISA assay
# Assay type: biochemical
# Settings: phosphorylation of 4E-BP1; 0.2 nM mTORC1, 10 μM ATP; read-out: IC50 in this assay (mTORC1 ELISA)
# How it was run: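 ELISA read-out: phospho-4E-BP1 captured on Ni-chelate plates and detected with anti-phospho antibody plus HRP-anti-IgG luminescence. The kinase step ran 120 min at ambient temperature with 0.2 nM human mTORC1, 10 µM ATP, 50 nM His-4E-BP1, 10 mM MnCl2, pH 7.2 HEPES.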
row,Structure (SMILES),IC50
1,"CC1(C)CCc2ncnc(N3CCOc4ccc(-c5cnc6nc[nH]c6c5)cc4C3)c2C1 [Example 221, 4-(6,6-dimethyl-5,6,7,8-tetrahydroquinazolin-4-yl)-7-(1H-imidazo[4,5-b]pyridin-6-yl)-2,3,4,5-tetrahydro-1,4-benzoxazepine]",≤ 0.01 µM
2,"c1ccc2c(N3CCOc4ccc(-c5cn[nH]c5)cc4C3)ccnc2c1 [Example 137, 7-(1H-pyrazol-4-yl)-4-quinolin-4-yl-2,3,4,5-tetrahydro-1,4-benzoxazepine]",1 to 2 µM
3,"CC1(C)CCc2ncnc(N3CCOc4ccc(-c5cnc(N)c(S(=O)(=O)N6CC7CNCC7C6)c5)cc4C3)c2C1 (stereo not drawn) [Example 511, 5-[4-(6,6-dimethyl-5,6,7,8-tetrahydroquinazolin-4-yl)-2,3,4,5-tetrahydro-1,4-benzoxazepin-7-yl]-3-(hexahydropyrrolo[3,4-c]pyrrol-2(1H)-ylsulfonyl)pyridin-2-amine]",0.05 to 0.25 µM
4,"CC1(C)CCc2ncnc(N3CCOc4ccc(-c5cnc(N)c(S(=O)(=O)NCC(N)=O)c5)cc4C3)c2C1 [Example 636, N~2~-({2-amino-5-[4-(6,6-dimethyl-5,6,7,8-tetrahydroquinazolin-4-yl)-2,3,4,5-tetrahydro-1,4-benzoxazepin-7-yl]pyridin-3-yl}sulfonyl)glycinamide]",0.01 to 0.05 µM
5,"c1ccc2c(N3CCOc4ccc(-c5ccc6nc[nH]c6c5)cc4C3)ncnc2c1 [Example 123, 7-(1H-benzimidazol-6-yl)-4-quinazolin-4-yl-2,3,4,5-tetrahydro-1,4-benzoxazepine]",0.05 to 0.25 µM
6,COc1cc2c(N3CCOc4ccc(-c5ccc6nc(C)[nH]c6c5)cc4C3)ncnc2cc1OCc1ccccc1 [Example 10],0.25 to 1 µM
7,"COc1ccc2c(N3CCOc4ccc(-c5cnc(Cl)c(NS(C)(=O)=O)c5)cc4C3)ncnc2c1 [Example 608, N-(2-chloro-5-{4-[7-(methyloxy)quinazolin-4-yl]-2,3,4,5-tetrahydro-1,4-benzoxazepin-7-yl}pyridin-3-yl)methanesulfonamide]",0.01 to 0.05 µM
8,"Cc1nc2cc(-c3ccc4c(c3)CN(c3nc(CO)nc(C)c3Cc3ccc(F)cc3)CCO4)ccc2[nH]1 [Example 310, {5-[(4-fluorophenyl)methyl]-4-methyl-6-[7-(2-methyl-1H-benzimidazol-5-yl)-2,3-dihydro-1,4-benzoxazepin-4(5H)-yl]pyrimidin-2-yl}methanol]",≤ 0.01 µM
9,"Cc1nc(C)c(Cc2ccc(F)cc2)c(N2CCOc3ccc(-c4ccc5nc(C)[nH]c5c4)cc3C2)n1 [Example 97, 4-{5-[(4-fluorrophenyl)methyl]-2,6-dimethylpyrimidin-4-yl}-7-(2-methyl-1H-benzimidazol-6-yl)-2,3,4,5-tetrahydro-1,4-benzoxazepine]",≤ 0.01 µM
10,"Cc1nc2c(c(N3CCOc4ccc(-c5cnc6nc(C7CC7)[nH]c6c5)cc4C3)n1)CC(C)(C)CC2 [Example 544, 7-(2-cyclopropyl-1H-imidazo[4,5-b]pyridin-6-yl)-4-(2,6,6-trimethyl-5,6,7,8-tetrahydroquinazolin-4-yl)-2,3,4,5-tetrahydro-1,4-benzoxazepine]",≤ 0.01 µM
11,"Cc1nc2cc(-c3ccc4c(c3)CN(c3nc(CCN5CCCC5)nc5c3CC(C)(C)CC5)CCO4)cnc2[nH]1 [Example 497, 4-[6,6-dimethyl-2-(2-pyrrolidin-1-ylethyl)-5,6,7,8-tetrahydroquinazolin-4-yl]-7-(2-methyl-3H-imidazo[4,5-b]pyridin-6-yl)-2,3,4,5-tetrahydro-1,4-benzoxazepine]",0.01 to 0.05 µM
12,"Cc1nc2ncc(-c3ccc4c(c3)CN(c3nc(CN(C)C)nc(C)c3CC3CC3)CCO4)cc2[nH]1 [Example 346, 1-{5-(cyclopropylmethyl)-4-methyl-6-[7-(2-methyl-1H-imidazo[4,5-b]pyridin-6-yl)-2,3-dihydro-1,4-benzoxazepin-4(5H)-yl]pyrimidin-2-yl}-N,N-dimethylmethanamine]",0.05 to 0.25 µM
13,"Cc1nc2ccc(-c3ccc4c(c3)CN(c3nc(CN(C)C)nc5c3CC(C)(C)CC5)CCO4)cc2[nH]1 [Example 351, 1-{6,6-dimethyl-4-[7-(2-methyl-1H-benzimidazol-6-yl)-2,3-dihydro-1,4-benzoxazepin-4(5H)-yl]-5,6,7,8-tetrahydroquinazolin-2-yl}-N,N-dimethylmethanamine]",0.01 to 0.05 µM
14,"CCCc1nc2cc(-c3ccc4c(c3)CN(c3ncnc5c3CC(C)(C)CC5)CCO4)cnc2[nH]1 [Example 225, 4-(6,6-dimethyl-5,6,7,8-tetrahydroquinazolin-4-yl)-7-(2-propyl-3H-imidazo[4,5-b]pyridin-6-yl)-2,3,4,5-tetrahydro-1,4-benzoxazepine]",≤ 0.01 µM
15,"COC(=O)Nc1nc2ccc(-c3ccc4c(c3)CN(c3ccncn3)CCO4)cc2[nH]1 [Example 107, methyl-6[(4-pyrimidin-4-yl-2,3,4,5-tetrahydro-1,4-benzoxazepin-7-yl)-1H-benzimidazol-2-yl]carbamate]",≥ 2 µM
16,"Cc1nc2ncc(-c3ccc4c(c3)CN(c3nc(CNC(C)C)nc5c3CC(C)(C)CC5)CCO4)cc2[nH]1 [Example 607, N-({6,6-dimethyl-4-[7-(2-methyl-1H-imidazo[4,5-b]pyridin-6-yl)-2,3-dihydro-1,4-benzoxazepin-4(5H)-yl]-5,6,7,8-tetrahydroquinazolin-2-yl}methyl)propan-2-amine]",≤ 0.01 µM
17,"CC1(C)CCc2ncnc(N3CCOc4ccc(-c5cnc(N)c(S(=O)(=O)N6CCCC6)c5)cc4C3)c2C1 [Example 515, 5-[4-(6,6-dimethyl-5,6,7,8-tetrahydroquinazolin-4-yl)-2,3,4,5-tetrahydro-1,4-benzoxazepin-7-yl]-3-(pyrrolidin-1-ylsulfonyl)pyridin-2-amine]",0.05 to 0.25 µM
18,"CCNc1nc2ccc(-c3ccc4c(c3)CN(c3ncnc5cc(F)ccc35)CCO4)cc2[nH]1 [Example 281, N-ethyl-6-[4-(7-fluoroquinazolin-4-yl)-2,3,4,5-tetrahydro-1,4-benzoxazepin-7-yl]-1H-benzimidazol-2-amine]",0.05 to 0.25 µM
19,"COC(=O)Nc1nc2ccc(-c3ccc4c(c3)CN(c3ncnc5cc(OC)c(OC)cc35)CCO4)cc2[nH]1 [Example 111, methyl (6-{4-[6,7-bis(methyloxy)quinazolin-4-yl]-2,3,4,5-tetrahydro-1,4-benzoxazepin-7-yl}-1H-benzimidazol-2-yl)carbamate]",1 to 2 µM
20,"CC(O)c1nc2cc(-c3ccc4c(c3)CN(c3ncnc5c3CC(C)(C)CC5)CCO4)cnc2[nH]1 (stereo not drawn) [Example 252, 1-{6-[4-(6,6-dimethyl-5,6,7,8-tetrahydroquinazolin-4-yl)-2,3,4,5-tetrahydro-1,4-benzoxazepin-7-yl]-3H-imidazo[4,5-b]pyridin-2-yl}ethanol]",≤ 0.01 µM
21,"c1ccc2c(N3CCOc4ccc(-c5ccc6c(c5)CCO6)cc4C3)ccnc2c1 [Example 135, 7-(2,3-dihydro-1-benzofuran-5-yl)-4-quinolin-4-yl-2,3,4,5-tetrahydro-1,4-benzoxazepine]",1 to 2 µM
22,"Cc1nc2ncc(-c3ccc4c(c3)CN(c3ncnc(Cl)c3C)CCO4)cc2[nH]1 [Example 481, 4-(6-chloro-5-methylpyrimidin-4-yl)-7-(2-methyl-1H-imidazo[4,5-b]pyridin-6-yl)-2,3,4,5-tetrahydro-1,4-benzoxazepine]",0.05 to 0.25 µM
23,"Cc1nc(CN(C)C)nc(N2CCOc3ccc(-c4cnc5sc(N)nc5c4)cc3C2)c1C [Example 671, 6-(4-{2-[(dimethylamino)methyl]-5,6-dimethylpyrimidin-4-yl}-2,3,4,5-tetrahydro-1,4-benzoxazepin-7-yl)[1,3]thiazolo[5,4-b]pyridin-2-amine]",0.25 to 1 µM
24,"Cc1nc2ncc(-c3ccc4c(c3)CN(c3nc(CN5CC[C@H](F)C5)nc5c3CC(C)(C)CC5)CCO4)cc2[nH]1 [Example 464, 4-(2-{[(3S)-3-fluoropyrrolidin-1-yl]methyl}-6,6-dimethyl-5,6,7,8-tetrahydroquinazolin-4-yl)-7-(2-methyl-1H-imidazo[4,5-b]pyridin-6-yl)-2,3,4,5-tetrahydro-1,4-benzoxazepine]",0.01 to 0.05 µM
25,"COC(=O)Nc1nc2ccc(-c3ccc4c(c3)CN(c3ncnc(C)c3Cc3ccc(F)cc3)CCO4)cc2[nH]1 [Example 113, methyl [6-(4-{5-[(4-fluorophenyl)methyl]-6-methylpyrimidin-4-yl}-2,3,4,5-tetrahydro-1,4-benzoxazepin-7-yl)-1H-benzimidazol-2-yl]carbamate]",0.01 to 0.05 µM
26,"CCOC(=O)Nc1nc2ncc(-c3ccc4c(c3)CN(c3ncnc5c3CC(C)(C)CC5)CCO4)cc2[nH]1 [Example 576, ethyl {6-[4-(6,6-dimethyl-5,6,7,8-tetrahydroquinazolin-4-yl)-2,3,4,5-tetrahydro-1,4-benzoxazepin-7-yl]-1H-imidazo[4,5-b]pyridin-2-yl}carbamate]",0.01 to 0.05 µM
27,"CC1=Cc2ncnc(N3CCOc4ccc(-c5cnc(N)c(S(=O)(=O)NCC6CCN(C)CC6)c5)cc4C3)c2CC1(C)C [Example 420, 2-amino-N-[(1-methylpiperidin-4-yl)methyl]-5-[4-(6,6,7-trimethyl-5,6-dihydroquinazolin-4-yl)-2,3,4,5-tetrahydro-1,4-benzoaxepin-7-yl]pyridine-3-sulfonamide]",0.25 to 1 µM
28,"Cc1nc2ccc(-c3ccc4c(c3)CN(c3ncnc(C)c3Cc3cc(F)cc(F)c3)CCO4)cc2[nH]1 [Example 91, 4-(5-[(3,5-difluorophenyl)methyl]-6-methylpyrimidin-4-yl}-7-(2-methyl-1H-benzimidazol-6-yl)-2,3,4,5-tetrahydro-1,4-benzoxazepine]",0.01 to 0.05 µM
29,"Cc1ncnc(N2CCOc3ccc(-c4cnc5nc(N)[nH]c5c4)cc3C2)c1Cc1ccc(F)cc1 [Example 176, 6-(4-{5-[(4-fluorophenyl)methyl]-6-methylpyrimidin-4-yl}-2,3,4,5-tetrahydro-1,4-benzoxazepin-7-yl)-1H-imidazo[4,5-b]pyridin-2-amine]",≤ 0.01 µM
30,"Cc1nc(N)sc1-c1ccc2c(c1)CN(c1ncnc3c1CCC(C)(C)C3)CCO2 [Example 156, 5-[4-(7,7-dimethyl-5,6,7,8-tetrahydroquinazolin-4-yl)-2,3,4,5-tetrahydro-1,4-benzoxazepin-7-yl]-4-methyl-1,3-thiazol-2-amine]",0.01 to 0.05 µM
